One compound from US8592432B2, “Compounds and compositions as protein kinase inhibitors” (priority 2008, dated 2013) can be followed below.

In this assay the target is ALK (Homo sapiens (Human), UniProt Q9UM73). The assay can be described thus: ALK IC50 (Tables 1-4). It is filed as biochemical. The procedure: Assays are incubated for 10 min at ambient temperature. […] Following washing (0.5% H3PO4), plates are counted in a liquid scintillation counter. IC50 values are calculated by linear regression analysis of the percentage inhibition.
Compounds of the present invention may be assessed for their ability to inhibit ALK using assays described below, as well as other assays known in the art.

Chain of ALK (Q9UM73 1116-1392): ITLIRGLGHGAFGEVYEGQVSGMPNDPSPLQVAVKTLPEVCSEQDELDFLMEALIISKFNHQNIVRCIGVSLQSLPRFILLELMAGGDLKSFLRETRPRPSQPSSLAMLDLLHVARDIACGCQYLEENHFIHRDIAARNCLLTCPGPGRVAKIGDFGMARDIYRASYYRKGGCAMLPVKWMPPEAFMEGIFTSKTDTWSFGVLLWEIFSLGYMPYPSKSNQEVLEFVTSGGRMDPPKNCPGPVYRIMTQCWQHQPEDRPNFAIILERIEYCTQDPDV

Turning to `Cc1cc(Nc2nc(Nc3ccccc3S(=O)(=O)C(C)C)c3c(C)n[nH]c3n2)c(OC(C)C)cc1C1CCN(C)CC1` [Compound 34, N6-(2-isopropoxy-5-methyl-4-(1-methylpiperidin-4-yl)phenyl)-N4-(2-(isoproplsulfonyl)phenyl)-3-methyl-1H-pyrazolo[3,4-d]pyrimidine-4,6-diamine], the IC50 (in general, the midpoint of a concentration-inhibition curve) turned out to be 20 nM.
